Legend:
[1] = test system: T cells (CD3+); experiment: GVHD mouse model, LiCl treatment of allogeneic mice, CD3+ T cells of spleen counted by flow cytometry; format: in vivo; conditions: 2.0 mg/kg LiCl once a day, day 3 post-transplant
Procedure: Mice are divided into 3 groups (Untreated, Syngeneic and Allogeneic) per time point with 6-12 mice per group. The untreated group mice (without irradiation) were injected with plain medium. The syngeneic group irradiated (600 rads) Balb/c mice were injected with splenocytes (30×10̂6) from matched donor Balb/c mice. The allogeneic group irradiated (600 rads) Balb/c mice were injected with splenocytes (30×10̂6) from unmatched donor C57Bl/6 mice. An additional 2-3 mice in each group were injected with 2.0 mg/kg LiCl (dissolved 1:2 LiCl:PBS), once a day from day 1 to day 5 post-transplant, sacrificed at days 3 and 5.
Total T cells (CD3+) were collected from spleens of mice of the 3 groups of the GVHD model as described above. Cells were stained for CD3 and counted by Flow Cytometry.
In order to explore the effect of GSK-3β activation state on T-cell proliferation, the GVHD model mice were treated with Lithium chloride (LiCl). Lithium chloride (LiCl) is known to affect GSK-3β activation state by regulating its phosphorylation state. Lithium chloride (LiCl) treatments were given to a separate group of allogeneic mice.

[2] = test system: C57Bl/6 and Balb/c splenocytes; experiment: Mixed lymphocyte reaction, XTT proliferation assay; format: cell-based, mouse; conditions: for proliferation level: versus control (0 mM)
Procedure: Splenocytes were harvested from untreated Balb/c and C57BL/6 mice. C57BL/6 cells were incubated in a flat bottom 96 well plate for 96 h with either irradiated (1500 rads) or not irradiated Balb/c cells as indicated, at the indicated concentrations. XTT reagent for proliferation assay was added 24 h before reading. Plate was read at 620 nm.
Splenocytes were collected from spleens of C57Bl/6 and Balb/c mice and cultured ex-vivo and assayed for proliferation by XTT (tetrazolium salt). The C57Bl/6 and Balb/c cells were cultured ex-vivo together to mimic a GVHD reaction. The cells were cultured in 3 groups, having different cell concentrations: • 2×2: 2×10̂5 C57Bl/6 and 2×10̂5 balb/c cells • 1×1: 1×10̂5 C57Bl/6 and 1×10̂5 balb/c cells • 2×*2: 2×10̂5 C57Bl/6 and 2×10̂5 irradiated balb/c cells
In order to test the effect of GSK-3β activation state on cell proliferation, Lithium Chloride (a known inhibitor of GSK-3β) was added at different concentrations. […] Furthermore, it can be seen that the effect of LiCl depends on the confluence (concentration) of cells.

## [Cl-].[Li+] [LiCl, Lithium chloride]
[1]
  amount of T-cells: increased
[2]; 12.5 mM LiCl, 2×2 group (2×10^5 C57Bl/6 and 2×10^5 balb/c cells)
  proliferation level: significantly lower
[2]; 25 mM LiCl, 1×1 group (1×10^5 C57Bl/6 and 1×10^5 balb/c cells)
  proliferation level: significantly higher
[2]; 25 mM LiCl, 2×2 group
  proliferation level: significantly higher
[2]; doses smaller than 12.5 mM
  effect on proliferation: no apparent effect

Source: US20150099645A1, “MEANS AND METHODS FOR DIAGNOSTICS AND TH[…] DISEASES” (priority 2012, published 2015)
